Source: PubChem BioAssay (NCI)
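Compound exposure: 48 hours, 5 concentrations, 96-well plates. TGI: total growth inhibition.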

Key:
Experiment in all cases: inhibition of tumour cell growth, NCI panel, 48 h
[1] = system: DLD-1 colon
[2] = system: HOP-92 NSCLC
[3] = system: SF-295 CNS
[4] = system: MALME-3M melanoma
[5] = system: COLO 205 colon
[6] = system: SN12C renal
[7] = system: UACC-257 melanoma
[8] = system: HT29 colon
[9] = system: DMS 273 small cell lung
[10] = system: A498 renal
[11] = system: SW-620 colon
[12] = system: LXFL 529 NSCLC
[13] = system: RPMI-8226 leukemia
[14] = system: MOLT-4 leukemia
[15] = system: 786-0 renal
[16] = system: HL-60(TB) leukemia
[17] = system: HOP-62 NSCLC
[18] = system: EKVX NSCLC
[19] = system: M19-MEL melanoma
[20] = system: KM20L2 colon
[21] = system: SF-539 CNS
[22] = system: M14 melanoma
[23] = system: NCI-H460 lung
[24] = system: CAKI-1 renal
[25] = system: OVCAR-5 ovarian
[26] = system: NCI-H522 lung
[27] = system: TK-10 renal
[28] = system: OVCAR-4 ovarian
[29] = system: DMS 114 small cell lung
[30] = system: UACC-62 melanoma
[31] = system: IGROV1 ovarian
[32] = system: K-562 leukemia
[33] = system: NCI-H226 lung
[34] = system: U251 CNS
[35] = system: SK-MEL-28 melanoma
[36] = system: SK-OV-3 ovarian
[37] = system: LOX IMVI melanoma
[38] = system: RXF-631 renal
[39] = system: UO-31 renal
[40] = system: SNB-78 CNS
[41] = system: KM12 colon
[42] = system: RXF 393 renal
[43] = system: ACHN renal
[44] = system: NCI-H23 lung
[45] = system: OVCAR-8 ovarian
[46] = system: SNB-19 CNS
[47] = system: HOP-18 NSCLC
[48] = system: OVCAR-3 ovarian
[49] = system: SF-268 CNS
[50] = system: HCC-2998 colon
[51] = system: A549 NSCLC
[52] = system: HCT-116 colon
[53] = system: SK-MEL-5 melanoma
[54] = system: SR leukemia
[55] = system: SK-MEL-2 melanoma
[56] = system: CCRF-CEM leukemia
[57] = system: HCT-15 colon
[58] = system: SNB-75 CNS

**Q.** With Cc1cc(C)nc(NS(=O)(=O)c2ccc(NC(=O)c3ccc(Cl)c4c(Nc5ccc(S(=O)(=O)Nc6cc(C)on6)cc5)c5ccccc5nc34)cc2)n1 as the compound, how does the TGI [1] read?
**A.** The TGI was 31.6 µM.

**Q.** What about the TGI [2] of the same compound?
**A.** The TGI was 30.3 µM.

**Q.** And the TGI [3]?
**A.** Its TGI is 32.7 µM.

**Q.** What about the TGI [4] of the same compound?
**A.** The TGI was 40 µM.

**Q.** What about the TGI [5] of the same compound?
**A.** Its TGI is 32.3 µM.

**Q.** And the TGI [6]?
**A.** Its TGI is 36.5 µM.

**Q.** And the TGI [7]?
**A.** The TGI was 32.2 µM.

**Q.** What about the TGI [8] of the same compound?
**A.** The TGI was 35.8 µM.

**Q.** And the TGI [9]?
**A.** The TGI was 31.9 µM.

**Q.** What about the TGI [10] of the same compound?
**A.** Its TGI is 29.1 µM.

**Q.** And the TGI [11]?
**A.** The TGI was 33.1 µM.

**Q.** What about the TGI [12] of the same compound?
**A.** The TGI was 30.7 µM.

**Q.** What about the TGI [13] of the same compound?
**A.** The TGI was 50.3 µM.

**Q.** What about the TGI [14] of the same compound?
**A.** The TGI was 70.9 µM.

**Q.** What about the TGI [15] of the same compound?
**A.** The TGI was 30.9 µM.

**Q.** What about the TGI [16] of the same compound?
**A.** The TGI was 27.2 µM.

**Q.** And the TGI [17]?
**A.** The TGI was 30.6 µM.

**Q.** And the TGI [18]?
**A.** Its TGI is 33.9 µM.

**Q.** What about the TGI [19] of the same compound?
**A.** The TGI was 39.7 µM.

**Q.** What about the TGI [20] of the same compound?
**A.** The TGI was 32.6 µM.

**Q.** And the TGI [21]?
**A.** The TGI was 34.6 µM.

**Q.** What about the TGI [22] of the same compound?
**A.** The TGI was 36.3 µM.

**Q.** What about the TGI [23] of the same compound?
**A.** Its TGI is 36.3 µM.

**Q.** What about the TGI [24] of the same compound?
**A.** The TGI was 29.5 µM.

**Q.** And the TGI [25]?
**A.** Its TGI is 35.7 µM.

**Q.** What about the TGI [26] of the same compound?
**A.** Its TGI is 31.8 µM.

**Q.** And the TGI [27]?
**A.** Its TGI is 32.3 µM.

**Q.** And the TGI [28]?
**A.** Its TGI is 30.7 µM.

**Q.** And the TGI [29]?
**A.** The TGI was 32.6 µM.

**Q.** And the TGI [30]?
**A.** Its TGI is 32.3 µM.

**Q.** What about the TGI [31] of the same compound?
**A.** Its TGI is 37.3 µM.

**Q.** And the TGI [32]?
**A.** Its TGI is 68.5 µM.

**Q.** And the TGI [33]?
**A.** The TGI was 32.9 µM.

**Q.** And the TGI [34]?
**A.** The TGI was 28.9 µM.

**Q.** And the TGI [35]?
**A.** Its TGI is 32.9 µM.

**Q.** What about the TGI [36] of the same compound?
**A.** Its TGI is 35.9 µM.

**Q.** And the TGI [37]?
**A.** Its TGI is 30 µM.

**Q.** What about the TGI [38] of the same compound?
**A.** Its TGI is 33.7 µM.

**Q.** What about the TGI [39] of the same compound?
**A.** The TGI was 31.7 µM.

**Q.** What about the TGI [40] of the same compound?
**A.** The TGI was 37.2 µM.

**Q.** And the TGI [41]?
**A.** Its TGI is 33.7 µM.

**Q.** And the TGI [42]?
**A.** Its TGI is 28 µM.

**Q.** And the TGI [43]?
**A.** Its TGI is 36.1 µM.

**Q.** And the TGI [44]?
**A.** Its TGI is 29.7 µM.

**Q.** And the TGI [45]?
**A.** The TGI was 30.9 µM.

**Q.** What about the TGI [46] of the same compound?
**A.** Its TGI is 30.8 µM.

**Q.** And the TGI [47]?
**A.** The TGI was 29.2 µM.

**Q.** What about the TGI [48] of the same compound?
**A.** Its TGI is 30.4 µM.

**Q.** And the TGI [49]?
**A.** The TGI was 28.9 µM.

**Q.** And the TGI [50]?
**A.** The TGI was 33 µM.

**Q.** And the TGI [51]?
**A.** Its TGI is 40.7 µM.

**Q.** And the TGI [52]?
**A.** Its TGI is 39.9 µM.

**Q.** And the TGI [53]?
**A.** The TGI was 30 µM.

**Q.** Which results are given for O=C1CCC(c2nc3cc(Cl)ccc3o2)C(=O)N1 (stereo not given)?
**A.** TGI [1]: > 100 µM; TGI [2]: > 100 µM; TGI [3]: > 100 µM; TGI [4]: > 100 µM; TGI [5]: > 100 µM; TGI [6]: > 100 µM; TGI [7]: > 100 µM; TGI [8]: > 100 µM; TGI [54]: > 100 µM; TGI [9]: > 100 µM; TGI [55]: > 100 µM; TGI [10]: > 100 µM; TGI [11]: > 100 µM; TGI [12]: > 100 µM; TGI [56]: > 100 µM; TGI [14]: > 100 µM; TGI [15]: > 100 µM; TGI [16]: > 100 µM; TGI [17]: > 100 µM; TGI [57]: > 100 µM; TGI [18]: > 100 µM; TGI [19]: > 100 µM; TGI [20]: > 100 µM; TGI [21]: > 100 µM; TGI [22]: > 100 µM; TGI [23]: > 100 µM; TGI [58]: > 100 µM; TGI [24]: > 100 µM; TGI [25]: > 100 µM; TGI [26]: > 100 µM; TGI [27]: > 100 µM; TGI [28]: > 100 µM; TGI [29]: > 100 µM; TGI [30]: > 100 µM; TGI [31]: > 100 µM; TGI [32]: > 100 µM; TGI [33]: > 100 µM; TGI [34]: > 100 µM; TGI [35]: > 100 µM; TGI [36]: > 100 µM; TGI [37]: > 100 µM; TGI [38]: > 100 µM; TGI [39]: > 100 µM; TGI [40]: > 100 µM; TGI [41]: > 100 µM; TGI [42]: > 100 µM; TGI [43]: > 100 µM; TGI [44]: > 100 µM; TGI [45]: > 100 µM; TGI [46]: > 100 µM; TGI [47]: > 100 µM; TGI [48]: > 100 µM; TGI [49]: > 100 µM; TGI [50]: > 100 µM; TGI [51]: > 100 µM; TGI [52]: > 100 µM; TGI [53]: > 100 µM
